Test results: PMC9067983, “Identification of highly selective type II kinase inhibitors with chiral peptidomimetic tails” (Journal of Enzyme Inhibition and Medicinal Chemistry, 2022)
Where a SMILES comes first, the peptide text is derived from it. [ ]: non-standard residue; d: D form. The star is where a group is joined. X1 = Cc1ccc(Nc2ncc3c(n2)N(C)C(=O)N(c2cc(C(=O)*)ccc2C)C3)cn1; Aib = CC(C)(N)C(=O)O

Key:
Experiment in all cases: kinase selectivity profiling
Format in all cases: biochemical
Settings in all cases: 10µM ATP, read-out: % inhibition (relative to DMSO)
[1] = target: T1, MST1/STK4 (Homo sapiens, UniProt Q13043)
T1 construct: purchased Reaction Biology Corp
Method: (§1) Full panel kinase profiling and kinase IC50 measurement were performed by using Reaction Biology Corp. (San Diego, USA).

[2] = target: T2, DDR2 (Homo sapiens, UniProt Q16832)
T2 construct: purchased Reaction Biology Corp
Method: as §1

[3] = target: T3, RSK1 (Homo sapiens, UniProt Q15418)
T3 construct: purchased Reaction Biology Corp
Method: as §1

[4] = target: T4, BRSK2 (Homo sapiens, UniProt Q8IWQ3)
T4 construct: purchased Reaction Biology Corp
Method: as §1

[5] = target: T5, DYRK2 (Homo sapiens, UniProt Q92630)
T5 construct: purchased Reaction Biology Corp
Method: as §1

[6] = target: T6, CDK7/cyclin H (Homo sapiens, UniProt P50613)
T6 construct: purchased Reaction Biology Corp
Method: as §1

[7] = target: T7, ZIPK/DAPK3 (Homo sapiens, UniProt O43293)
T7 construct: purchased Reaction Biology Corp
Method: as §1

[8] = target: T8, CSK (Homo sapiens, UniProt P41240)
T8 construct: purchased Reaction Biology Corp
Method: as §1

[9] = target: T9, CDK6/cyclin D3 (Homo sapiens, UniProt Q00534)
T9 construct: purchased Reaction Biology Corp
Method: as §1

[10] = target: T10, FMS (Homo sapiens, UniProt P07333)
T10 construct: purchased Reaction Biology Corp
Method: as §1

[11] = target: T11, TYK2 (Homo sapiens, UniProt P29597)
T11 construct: purchased Reaction Biology Corp
Method: as §1

[12] = target: T12, ULK1 (Homo sapiens, UniProt O75385)
T12 construct: purchased Reaction Biology Corp
Method: as §1

[13] = target: T13, CK2a2 (Homo sapiens, UniProt P19784)
T13 construct: purchased Reaction Biology Corp
Method: as §1

[14] = target: T14, PKCzeta (Homo sapiens, UniProt Q05513)
T14 construct: purchased Reaction Biology Corp
Method: as §1

[15] = target: T15, CAMK2b (Homo sapiens, UniProt Q13554)
T15 construct: purchased Reaction Biology Corp
Method: as §1

[16] = target: T16, ACK1 (Homo sapiens, UniProt Q07912)
T16 construct: purchased Reaction Biology Corp
Method: as §1

[17] = target: T17, EPHB3 (Homo sapiens, UniProt P54753)
T17 construct: purchased Reaction Biology Corp
Method: as §1

[18] = target: T18, SNRK (Homo sapiens, UniProt Q9NRH2)
T18 construct: purchased Reaction Biology Corp
Method: as §1

[19] = target: T19, PAK5 (Homo sapiens, UniProt Q9P286)
T19 construct: purchased Reaction Biology Corp
Method: as §1

[20] = target: T20, KSR2 (Homo sapiens, UniProt Q6VAB6)
T20 construct: purchased Reaction Biology Corp
Method: as §1

[21] = target: T21, RET (Homo sapiens, UniProt P07949)
T21 construct: purchased Reaction Biology Corp
Method: as §1

[22] = target: T22, MST4 (Homo sapiens, UniProt Q9P289)
T22 construct: purchased Reaction Biology Corp
Method: as §1

[23] = target: T23, AXL (Homo sapiens, UniProt P30530)
T23 construct: purchased Reaction Biology Corp
Method: as §1

[24] = target: T24, CDK17/cyclin Y (PCTK2) (Homo sapiens, UniProt Q00537)
T24 construct: purchased Reaction Biology Corp
Method: as §1

[25] = target: T25, IRR/INSRR (Homo sapiens, UniProt P14616)
T25 construct: purchased Reaction Biology Corp
Method: as §1

[26] = target: T26, MKK4 (Homo sapiens, UniProt P45985)
T26 construct: purchased Reaction Biology Corp
Method: as §1

[27] = target: T27, TYRO3/SKY (Homo sapiens, UniProt Q06418)
T27 construct: purchased Reaction Biology Corp
Method: as §1

[28] = target: T28, JAK2 (Homo sapiens, UniProt O60674)
T28 construct: purchased Reaction Biology Corp
Method: as §1

[29] = target: T29, SGK3/SGKL (Homo sapiens, UniProt Q96BR1)
T29 construct: purchased Reaction Biology Corp
Method: as §1

[30] = target: T30, MLK2/MAP3K10 (Homo sapiens, UniProt Q02779)
T30 construct: purchased Reaction Biology Corp
Method: as §1

[31] = target: T31, AKT1 (Homo sapiens, UniProt P31749)
T31 construct: purchased Reaction Biology Corp
Method: as §1

[32] = target: T32, MEK2 (Homo sapiens, UniProt P36507)
T32 construct: purchased Reaction Biology Corp
Method: as §1

[33] = target: T33, TLK1 (Homo sapiens, UniProt Q9UKI8)
T33 construct: purchased Reaction Biology Corp
Method: as §1

[34] = target: T34, PRKX (Homo sapiens, UniProt P51817)
T34 construct: purchased Reaction Biology Corp
Method: as §1

[35] = target: T35, PKCG (Homo sapiens, UniProt P05129)
T35 construct: purchased Reaction Biology Corp
Method: as §1

[36] = target: T36, NEK11 (Homo sapiens, UniProt Q8NG66)
T36 construct: purchased Reaction Biology Corp
Method: as §1

[37] = target: T37, PAK1 (Homo sapiens, UniProt Q13153)
T37 construct: purchased Reaction Biology Corp
Method: as §1

[38] = target: T38, RIPK5 (Homo sapiens, UniProt Q6XUX3)
T38 construct: purchased Reaction Biology Corp
Method: as §1

[39] = target: T39, PKCa (Homo sapiens, UniProt P17252)
T39 construct: purchased Reaction Biology Corp
Method: as §1

[40] = target: T40, GRK7 (Homo sapiens, UniProt Q8WTQ7)
T40 construct: purchased Reaction Biology Corp
Method: as §1

[41] = target: T41, ROS/ROS1 (Homo sapiens, UniProt P08922)
T41 construct: purchased Reaction Biology Corp
Method: as §1

[42] = target: T42, NEK2 (Homo sapiens, UniProt P51955)
T42 construct: purchased Reaction Biology Corp
Method: as §1

[43] = target: T43, ZAP70 (Homo sapiens, UniProt P43403)
T43 construct: purchased Reaction Biology Corp
Method: as §1

T33 sequence (Q9UKI8 whole entry): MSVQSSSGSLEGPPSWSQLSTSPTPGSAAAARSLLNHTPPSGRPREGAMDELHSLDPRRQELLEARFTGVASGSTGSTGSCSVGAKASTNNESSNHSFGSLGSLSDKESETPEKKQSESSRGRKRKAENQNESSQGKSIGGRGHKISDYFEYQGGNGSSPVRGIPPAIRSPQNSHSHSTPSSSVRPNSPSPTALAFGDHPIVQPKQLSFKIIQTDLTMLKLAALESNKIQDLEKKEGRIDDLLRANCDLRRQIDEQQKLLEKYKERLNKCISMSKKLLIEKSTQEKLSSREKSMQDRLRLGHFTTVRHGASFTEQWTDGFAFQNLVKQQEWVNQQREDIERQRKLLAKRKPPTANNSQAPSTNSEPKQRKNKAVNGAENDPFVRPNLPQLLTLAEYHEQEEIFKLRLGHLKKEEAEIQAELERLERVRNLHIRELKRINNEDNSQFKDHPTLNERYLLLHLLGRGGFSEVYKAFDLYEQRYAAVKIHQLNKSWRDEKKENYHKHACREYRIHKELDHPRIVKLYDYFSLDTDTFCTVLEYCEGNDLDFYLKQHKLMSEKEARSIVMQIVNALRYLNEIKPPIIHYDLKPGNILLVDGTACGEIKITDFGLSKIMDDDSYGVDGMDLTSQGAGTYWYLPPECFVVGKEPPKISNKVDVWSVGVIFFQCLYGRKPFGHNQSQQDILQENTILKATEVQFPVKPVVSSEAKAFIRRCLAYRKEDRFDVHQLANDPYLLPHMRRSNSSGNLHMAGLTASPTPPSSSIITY
T40 sequence (Q8WTQ7 whole entry): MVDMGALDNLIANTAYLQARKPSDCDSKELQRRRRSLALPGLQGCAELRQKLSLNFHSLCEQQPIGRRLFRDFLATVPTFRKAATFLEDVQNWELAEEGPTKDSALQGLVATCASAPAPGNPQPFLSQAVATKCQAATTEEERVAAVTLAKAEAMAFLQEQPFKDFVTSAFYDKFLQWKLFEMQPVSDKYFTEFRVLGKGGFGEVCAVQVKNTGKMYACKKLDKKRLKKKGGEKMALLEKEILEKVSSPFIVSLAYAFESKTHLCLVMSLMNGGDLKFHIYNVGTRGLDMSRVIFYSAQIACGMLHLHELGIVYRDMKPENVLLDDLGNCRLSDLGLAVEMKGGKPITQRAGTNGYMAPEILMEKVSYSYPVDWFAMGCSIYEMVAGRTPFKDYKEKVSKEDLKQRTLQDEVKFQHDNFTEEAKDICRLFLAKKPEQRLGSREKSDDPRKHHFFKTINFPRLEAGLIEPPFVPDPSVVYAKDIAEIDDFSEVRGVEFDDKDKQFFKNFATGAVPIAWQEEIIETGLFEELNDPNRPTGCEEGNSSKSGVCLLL
T20 sequence (Q6VAB6 whole entry): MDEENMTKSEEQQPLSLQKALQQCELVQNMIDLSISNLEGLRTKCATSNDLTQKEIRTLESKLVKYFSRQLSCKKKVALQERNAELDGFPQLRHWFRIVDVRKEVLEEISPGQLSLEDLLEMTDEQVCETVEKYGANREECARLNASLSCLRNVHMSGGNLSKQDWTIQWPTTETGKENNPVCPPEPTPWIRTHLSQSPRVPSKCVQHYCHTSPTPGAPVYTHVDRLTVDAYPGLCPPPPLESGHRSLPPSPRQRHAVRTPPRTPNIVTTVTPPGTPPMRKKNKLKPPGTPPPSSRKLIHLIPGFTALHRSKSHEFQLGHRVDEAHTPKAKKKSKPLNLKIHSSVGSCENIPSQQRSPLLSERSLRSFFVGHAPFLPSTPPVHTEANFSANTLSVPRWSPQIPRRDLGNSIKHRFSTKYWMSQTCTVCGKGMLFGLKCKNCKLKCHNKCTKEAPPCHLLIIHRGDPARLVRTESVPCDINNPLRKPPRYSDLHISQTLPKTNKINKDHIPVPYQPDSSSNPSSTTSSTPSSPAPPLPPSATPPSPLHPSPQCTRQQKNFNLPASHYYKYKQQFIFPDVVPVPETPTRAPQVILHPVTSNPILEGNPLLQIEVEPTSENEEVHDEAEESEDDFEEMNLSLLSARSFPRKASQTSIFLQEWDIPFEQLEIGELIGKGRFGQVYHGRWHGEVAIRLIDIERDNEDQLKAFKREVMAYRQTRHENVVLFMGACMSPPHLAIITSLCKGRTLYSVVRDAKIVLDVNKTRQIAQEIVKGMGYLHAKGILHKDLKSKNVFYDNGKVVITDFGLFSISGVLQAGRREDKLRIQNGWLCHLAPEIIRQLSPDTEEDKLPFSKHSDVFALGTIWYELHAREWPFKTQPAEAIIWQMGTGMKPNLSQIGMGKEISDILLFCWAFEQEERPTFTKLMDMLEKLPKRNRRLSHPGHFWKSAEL
T43 sequence (P43403 whole entry): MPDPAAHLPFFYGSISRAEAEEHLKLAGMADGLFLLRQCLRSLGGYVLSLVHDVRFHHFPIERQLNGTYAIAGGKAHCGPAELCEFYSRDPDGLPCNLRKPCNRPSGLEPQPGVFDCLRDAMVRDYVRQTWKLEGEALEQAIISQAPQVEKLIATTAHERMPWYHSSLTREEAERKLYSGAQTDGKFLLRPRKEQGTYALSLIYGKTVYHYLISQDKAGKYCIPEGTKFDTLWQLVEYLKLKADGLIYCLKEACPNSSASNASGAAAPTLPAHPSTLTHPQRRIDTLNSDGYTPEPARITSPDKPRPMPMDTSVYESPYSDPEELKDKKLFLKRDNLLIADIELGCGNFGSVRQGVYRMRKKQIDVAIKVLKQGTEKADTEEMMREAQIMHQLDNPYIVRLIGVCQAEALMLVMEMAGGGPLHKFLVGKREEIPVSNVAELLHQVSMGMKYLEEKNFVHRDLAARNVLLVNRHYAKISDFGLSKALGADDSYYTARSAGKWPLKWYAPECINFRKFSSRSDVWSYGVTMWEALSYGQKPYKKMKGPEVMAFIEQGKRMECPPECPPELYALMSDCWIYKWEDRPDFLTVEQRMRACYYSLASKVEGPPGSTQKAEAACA
T7 sequence (O43293 whole entry): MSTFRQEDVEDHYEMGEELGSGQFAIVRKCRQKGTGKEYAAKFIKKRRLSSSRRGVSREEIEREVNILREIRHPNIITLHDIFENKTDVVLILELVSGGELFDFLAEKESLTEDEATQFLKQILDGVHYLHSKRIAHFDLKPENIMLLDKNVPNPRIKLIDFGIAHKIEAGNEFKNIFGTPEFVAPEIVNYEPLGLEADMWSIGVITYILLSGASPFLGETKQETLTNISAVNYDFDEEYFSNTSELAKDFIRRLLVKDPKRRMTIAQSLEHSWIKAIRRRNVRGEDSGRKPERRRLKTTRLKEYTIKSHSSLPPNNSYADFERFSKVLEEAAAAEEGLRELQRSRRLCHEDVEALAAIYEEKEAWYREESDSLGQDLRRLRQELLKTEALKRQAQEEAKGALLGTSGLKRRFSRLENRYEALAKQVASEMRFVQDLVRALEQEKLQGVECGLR
T30 sequence (Q02779 whole entry): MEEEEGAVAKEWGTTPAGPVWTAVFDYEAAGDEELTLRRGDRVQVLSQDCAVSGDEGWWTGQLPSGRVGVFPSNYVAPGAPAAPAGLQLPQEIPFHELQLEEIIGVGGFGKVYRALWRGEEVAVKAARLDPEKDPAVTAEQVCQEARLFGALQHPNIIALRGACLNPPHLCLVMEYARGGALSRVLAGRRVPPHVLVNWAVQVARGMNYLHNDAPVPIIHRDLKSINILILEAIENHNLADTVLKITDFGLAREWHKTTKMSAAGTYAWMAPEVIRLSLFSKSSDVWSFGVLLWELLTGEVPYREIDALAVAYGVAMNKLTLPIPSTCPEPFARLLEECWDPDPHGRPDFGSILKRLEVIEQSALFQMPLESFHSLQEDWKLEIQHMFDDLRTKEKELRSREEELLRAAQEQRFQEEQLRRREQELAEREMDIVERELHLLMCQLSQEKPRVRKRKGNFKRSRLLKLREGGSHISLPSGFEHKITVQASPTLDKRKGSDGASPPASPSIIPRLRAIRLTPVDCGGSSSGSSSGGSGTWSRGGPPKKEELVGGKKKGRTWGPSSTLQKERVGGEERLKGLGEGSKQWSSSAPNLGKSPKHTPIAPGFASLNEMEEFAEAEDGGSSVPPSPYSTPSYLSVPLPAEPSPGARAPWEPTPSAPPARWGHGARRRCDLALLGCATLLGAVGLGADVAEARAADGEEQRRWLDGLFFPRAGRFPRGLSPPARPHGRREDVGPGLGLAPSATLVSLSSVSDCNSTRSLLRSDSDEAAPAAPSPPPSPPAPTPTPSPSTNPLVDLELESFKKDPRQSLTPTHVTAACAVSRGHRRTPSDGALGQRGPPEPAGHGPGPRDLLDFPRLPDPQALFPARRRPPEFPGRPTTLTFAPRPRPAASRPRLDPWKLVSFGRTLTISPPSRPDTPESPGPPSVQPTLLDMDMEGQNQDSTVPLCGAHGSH

Work on `Cc1ccc(Nc2ncc3c(n2)N(C)C(=O)N(c2cc(C(=O)N[C@H](C(=O)N4CCC[C@H]4C(=O)NC(C)(C)C(=O)N[C@@H](CC(C)C)C(=O)N(C)C)C(C)C)ccc2C)C3)cn1` [7a, (S)-N-(1-(((S)-1-(dimethylamino)-4-methyl-1-oxopentan-2-yl)amino)-2-methyl-1-oxopropan-2-yl)-1-((4-methyl-3-(1-methyl-7-((6-methylpyridin-3-yl)amino)-2-oxo-1,4-dihydropyrimido[4,5-d]pyrimidin-3(2H)-yl)benzoyl)-L-valyl)pyrrolidine-2-carboxamide] (X1-VP[Aib]L-NMe2) yielded an inhibition at 1 µM [1] of 5%, an inhibition at 1 µM [2] of 58% and an inhibition at 1 µM [3] of 17%. It also gave an inhibition at 1 µM [4] of 8%, an inhibition at 1 µM [5] of 8% and an inhibition at 1 µM [6] of 3%. For the same compound, the inhibition at 1 µM [7] was 6%, the inhibition at 1 µM [8] was 44% and the inhibition at 1 µM [9] was 0%. It also gave an inhibition at 1 µM [10] of 60%, an inhibition at 1 µM [11] of 1% and an inhibition at 1 µM [12] of 0%. The inhibition at 1 µM [13] was 3%, the inhibition at 1 µM [14] was 0% and the inhibition at 1 µM [15] was 3%. It also gave an inhibition at 1 µM [16] of 0%, an inhibition at 1 µM [17] of 8% and an inhibition at 1 µM [18] of 9%. It also gave an inhibition at 1 µM [19] of 9%, an inhibition at 1 µM [20] of 5% and an inhibition at 1 µM [21] of 9%. It also gave an inhibition at 1 µM [22] of 0%, an inhibition at 1 µM [23] of 0% and an inhibition at 1 µM [24] of 7%. For the same compound, the inhibition at 1 µM [25] was 5%, the inhibition at 1 µM [26] was 2% and the inhibition at 1 µM [27] was 1%. For the same compound, the inhibition at 1 µM [28] was 11%, the inhibition at 1 µM [29] was 6% and the inhibition at 1 µM [30] was 16%. The inhibition at 1 µM [31] was 8%, the inhibition at 1 µM [32] was 11% and the inhibition at 1 µM [33] was 0%. It also gave an inhibition at 1 µM [34] of 0%, an inhibition at 1 µM [35] of 9% and an inhibition at 1 µM [36] of 1%. The inhibition at 1 µM [37] was 5%, the inhibition at 1 µM [38] was 0% and the inhibition at 1 µM [39] was 0%. It also gave an inhibition at 1 µM [40] of 0%, an inhibition at 1 µM [41] of 9% and an inhibition at 1 µM [42] of 0%. It also gave an inhibition at 1 µM [43] of 0%.
